In patent US20250186592A1, “TETRAZINE CONJUGATES FOR IN VIVO TARGETED DELIVERY OF A PAYLOAD” (Tambo, Inc., priority 2021, published 2025):
Square brackets hold non-standard residues; d marks the D form. Peptide text beside a SMILES is read from it. * marks the point of attachment. Dolaproine = CO[C@@H]([C@@H]1CCCN1)[C@@H](C)C(=O)O; Dil = CC[C@H](C)[C@H](NC)[C@@H](CC(=O)O)OC; X1 = C[C@@H](N*)[C@@H](O)c1ccccc1; NMeV = CN[C@H](C(=O)O)C(C)C

How the values were obtained:
[1] = LCMS analysis of drug release by tetrazines; details: tetrazine 20 μM, TCO-MMAE 10 μM in PBS
Description: A solution of each tetrazine (20 μM final concentration) in PBS is mixed with TCO-MMAE (10 μM final concentration). The solution is mixed thoroughly and an aliquot removed at the appropriate time for analysis by LCMS.

[2] = test system: NCI-N87 xenograft; test: Efficacy study in subcutaneous NCI-N87 xenograft model in CB17 SCID mice; type: in vivo, mice (Mus musculus); details: for TGI: P<0.05 vs vehicle; for mean tumor size on day 35: vehicle 1009 mm^3
Description: Methods: 110 CB17 SCID female mice (Mus musculus; age: 6-8 weeks; body weight: 18-22 g; Shanghai LingChang Biotech Co., LTD) were inoculated subcutaneously at right flank with NCI-N87 cells (3×10^6 cells was suspended in 0.2 mL mixture of 1640 with (1640: Matrigel=1:1) BD Matrigel for tumor development). After 7 days inoculation, 70 animals were divided into 8 groups with 10 animals in group 1, 2, 5, 6, 7 and 8, and with 5 animals in group 3 and 4 using stratified random grouping based on their body weight and tumor volume. The treatments were started from the mean tumor size reached to 158 mm^3 (106-221 mm^3) for these 70 mice. Group 1: Vehicle, i.v., QD×3×2 weeks. Group 2: MMAE, 0.25 mpk, i.v., QW×2 weeks. […] Group 4: Compound A, 20 mpk, i.v., QD×3×2 weeks. […] Group 7: SQL70, 100 μL, i.t.×1 dose+Compound A, 1.9 mpk, i.v., QD×5. Group 8: T-DM1, 3 mpk, i.v., QW×2 weeks. The tumor sizes and body weight were measured twice a week during the treatment. The dosing schedule was finished on day PG-D10. The entire study was terminated on PG-D37 and collected all the tumor samples for group 5 and 6, and 3 tumors/group for group 1 and 2.
Experimental Methods and Procedures: Cell preparation and implantation: The NCI-N87 (Gastric carcinoma, ATCC® CRL-5822™, Lot No. 7686255) cells were maintained in vitro as a monolayer culture in RPMI-1640 medium supplemented with 10% heat inactivated fetal bovine serum, 100 U/mL penicillin and 100 μg/mL streptomycin at 37° C. in an atmosphere of 5% CO2 in air. The tumor cells were routinely sub-cultured per 5 days by trypsin-EDTA treatment. The cultured NCI-N87 cells were harvested, re-suspended in base medium at a density of 1.5×10^7 cells/mL with viability >90%. Each mouse was inoculated subcutaneously at the right flank with 3×10^6 in 0.2 mL mixture of 1640 with (1640: Matrigel=1:1) BD Matrigel for tumor development.
Randomization and administration: The treatments were started from the mice were grouped based on their mean tumor size reached 158 mm^3 (106-221 mm^3) for group 1-8. Each group consisted of 10 or 5 mice. The test article was administrated to the mice according to the regimen as shown in the experimental design table (Table 4).
Tumor Measurements and Endpoints: The major endpoint is to see if the tumor growth can be delayed or mice can be cured. […] The tumor sizes were then used for the calculations of both tumor growth inhibition (TGI) values.
The T/C value (in percent) is an indication of antitumor effectiveness, T/C (%)=RTVTreatment/RTVControl×100% (RTVTreatment: the mean RTV of the treatment group; RTVControl: the mean RTV of the vehicle treated group). RTV (relative tumor volume)=TVDayN/TVDay0. TVDayN and TVDay0 is the tumor volume on day N and Day 0 respectively. T/C (%)≤42% is considered as significant antitumor activity and <10% is considered as highly significant antitumor activity by the United States National Cancer Institute criteria.
Statistical Analysis: The tumor volume between different groups was analyzed by two-way repeated measures ANOVA followed by the Tukey's post hoc test. All data were analyzed using GraphPad Prism 6.0. P<0.05 is considered to be statistically significant.

[3] = Group 4: Compound A 20 mpk i.v. QD×3×2 weeks, day 35
[4] = Group 2: MMAE 0.25 mpk i.v. QW×2 weeks, day 35

Cc1nnc(-c2ncccn2)nn1
% TCO-MMAE consumed (1 h) [1]: 100% | % MMAE released (24 h) [1]: 29%

Cc1nnc(-c2cn(C)cn2)nn1
% TCO-MMAE consumed (1 h) [1]: 74% | % MMAE released (24 h) [1]: 40%

Cc1nnc(-c2cocn2)nn1
% TCO-MMAE consumed (1 h) [1]: 42% | % MMAE released (24 h) [1]: 62%

Cc1nnc(-c2ccc(C(F)(F)F)c(CN)c2)nn1
% TCO-MMAE consumed (1 h) [1]: 100% | % MMAE released (24 h) [1]: 46%

Cc1nnc(-c2ccc(CN)c(C(F)(F)F)c2)nn1
% TCO-MMAE consumed (1 h) [1]: 100% | % MMAE released (24 h) [1]: 51%

Cc1nnc(-c2ccccn2)nn1
% TCO-MMAE consumed (1 h) [1]: 100% | % MMAE released (24 h) [1]: 28%

Cc1nnc(-n2cccn2)nn1
% TCO-MMAE consumed (1 h) [1]: 81% | % MMAE released (24 h) [1]: 35%

CC[C@H](C)[C@@H](C(CC(=O)N1CCC[C@H]1[C@H](OC)[C@@H](C)C(=O)N[C@H](C)[C@@H](O)c1ccccc1)OC)N(C)C(=O)[C@@H](NC(=O)[C@H](C(C)C)N(C)C(=O)O[C@H]1/C=C/CC[C@@](C)(C(=O)O)CC1)C(C)C (stereo partly drawn) [Compound A]
T/C [2, 3]: 62.12% | TGI [2, 3]: 41.74% | mean tumor size on day 35 ([2]; Group 4: Compound A 20 mpk i.v. QD×3×2 weeks, day 35 after grouping): 653 mm^3

CC[C@H](C)[C@@H]([C@@H](CC(=O)N1CCC[C@H]1[C@H](OC)[C@@H](C)C(=O)N[C@H](C)[C@@H](O)c1ccccc1)OC)N(C)C(=O)[C@@H](NC(=O)[C@@H](NC)C(C)C)C(C)C [MMAE] (H-[NMeV]V[Dil][Dolaproine]-X1)
T/C [2, 4]: 57.50% | TGI [2, 4]: 49.68% | mean tumor size on day 35 ([2]; Group 2: MMAE 0.25 mpk i.v. QW×2 weeks, day 35 after grouping): 586 mm^3

T-DM1
mean tumor size on day 35 ([2]; Group 8: T-DM1 3 mpk i.v. QW×2 weeks, day 35): 873 mm^3
